Target: T1, T2R10 (TAS2R10) (Homo sapiens, UniProt Q9NYW0)
T1 construct: expressed in transfected cells; host or cells: cells expressing a promiscuous G protein (e.g., G16g44)
T1 sequence (Q9NYW0 1-307): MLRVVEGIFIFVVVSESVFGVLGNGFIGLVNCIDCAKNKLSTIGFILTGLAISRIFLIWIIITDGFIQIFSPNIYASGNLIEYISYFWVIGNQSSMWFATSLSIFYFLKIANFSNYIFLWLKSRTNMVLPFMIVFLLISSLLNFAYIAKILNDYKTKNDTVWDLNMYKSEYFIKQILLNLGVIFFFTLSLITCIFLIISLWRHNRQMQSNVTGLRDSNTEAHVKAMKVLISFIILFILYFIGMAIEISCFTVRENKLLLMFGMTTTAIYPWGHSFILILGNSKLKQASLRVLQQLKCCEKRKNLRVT
Assay: FLIPR calcium assay, block of bitter agonist response, T2R10
Assay type: cell-based
Details: unsaturated fatty acid concentration of 200 µM, cells stimulated with known bitter agonist, read-out: percentage block of cellular response over baseline, 10
Protocol: Cells expressing a promiscuous […] (e.g., G16g44) were transfected with vectors encoding 18 functional bitter receptor cDNAs, with one receptor per transfection. The cells were transfected directly in 384-well format high-density plates and incubated for 28 hours. Later, cells were loaded with the Ca-specific dye Fluo4-AM. After an incubation of 60 minutes, excess dye is washed off, and cells are stimulated with a known bitter agonist for each receptor and various unsaturated fatty acids. Changes in intracellular fluorescence are recorded using a FLIPR instrument. Bitter antagonists and corresponding receptors are identified based on percentage inhibition of agonist's activity on a given receptor.
The above protocol was carried out using 16 different unsaturated fatty acids. A particular T2R receptor was identified as being antagonized by a particular unsaturated fatty acid if it triggered a >25% block of agonist's cellular response at 200 μM concentration of unsaturated fatty acid. […] Table 2 indicates the sixteen (16) compounds tested by their compound number from Table 1 above. The 18 bitter taste receptors screened are the human bitter taste receptors we named. T2R01 (TAS2R01), T2R03 (TAS2R03), T2R04 (TAS2R04), T2R07 (TAS2R07), T2R08 (TAS2R08), T2R09 (TAS2R09), T2R10 (TAS2R10), T2R13 (TAS2R13), T2R14 (TAS2R14), T2R16 (TAS2R16), T2R54 (TAS2R39, T2R61 (TAS2R43), T2R63 (TA2R20), T2R64 (TAS2R31), T2R65 (TAS2R19), T2R67 (TAS2R50), T2R71 (TAS2R41), and T2R75 (TAS2R46). The corresponding IUPHAR nomenclature for each receptor is given in parenthesis. In Table 2, these receptors are identified by the last two digits. For example, T2R01 is indicated as 01. Table 2 reports the percentage block of cellular response over baseline at an unsaturated fatty acid concentration of 200 µM.

inhibition at 200 µM: > 65%
Compound: CC(C)=CCC/C(C)=C/C(=O)O [Compound 129]

— patent US20250344734A1, “UNSATURATED FATTY ACIDS AND THEIR USE TO MODIFY TASTE” (Firmenich Incorporated, priority 2022, published 2025)
